Measurements from patent publication US10577341B1, “Beraprost-314d monohydrate crystals and methods for preparation thereof” (CHIROGATE INTERNATIONAL INC., priority 2018, dated 2020).

Assays:
[1] = Stability of anhydrous form versus monohydrate form of Beraprost-314d; assay and total impurities by HPLC after storage at 40° C.; type: physicochemical; conditions: for Assay / Total Impurities: 40° C./60% RH, HPLC
Experimental: The Beraprost-314d monohydrate is stable at room temperature. For example, the formation of dimer and/or unwanted esterification byproducts by the presence of hydrates can be avoided. […] The assay and total impurities of Beraprost-314d monohydrate and anhydrous Beraprost-314d were measured by HPLC after treatment at 40° C., as shown in Table 3.

[2] = Crystalline form transformation of Beraprost-314d monohydrate Form A to Form B, followed by XRPD after isothermal standing; type: physicochemical; conditions: for XRPD pattern after heating (crystalline form): 24 hours
Experimental: X-ray Powder Diffraction (XRPD) Analysis: The XRPD patterns were collected on a Bruker D2 PHASER diffractometer with fixed divergence slits and 1D LYNXEYE detector. The samples (ca. 100 mg) were placed flat on a sample holder. The prepared samples were analyzed over a 2θ range from 5° to 50° with step size of 0.02 degrees and step time of 1 second using CuKα radiation at a power of 10 mA and 30 kV The CuKβ radiation was removed by a divergent beam nickel filter,
The critical temperature (T*). of crystalline form transformation of Beraprost-314d monohydrate Form A and Form B was determined. Crystalline Beraprost-314d monohydrate Form A (0.10 g, from Example 3) was placed in glass vials, and heated to 25° C., 27° C., 29° C., 31° C., 33° C., and 35° C. and isothermal stood for 24 hours.

[3] = 3 days, listed as Beraprost-314d monohydrate, monohydrate

Compound	Assay ([1]; 1 day)	Total Impurities ([1]; 1 day)	Assay ([1]; 2 days)	Assay ([1]; 3 days)	Total Impurities ([1]; 3 days)	Stability compared with the anhydrous form ([1]; 40° C. for 3 days)	Total Impurities ([1]; 2 days)	Assay [1, 3]	Total Impurities [1, 3]	Assay ([1]; 3 days, monohydrate)	Total Impurities ([1]; 3 days, monohydrate)	XRPD pattern after heating (crystalline form) ([2]; 25° C., 27° C. and 29° C.)	XRPD pattern after heating (crystalline form) ([2]; 31° C., 33° C. and 35° C.)	Critical temperature (T*) of crystalline form transformation from Form A to Form B ([2]; isothermal standing for 24 hours, XRPD)
CC#CC[C@H](C)[C@H](O)/C=C/[C@@H]1[C@H]2c3cccc(CCCC(=O)O)c3O[C@H]2C[C@H]1O [Anhydrous Beraprost-314d, Beraprost-314d]	99.30%	0.84%	99.01%	98.95%	1.19%	–	–	–	–	–	–	–	–	–
CC#CC[C@H](C)[C@H](O)/C=C/[C@@H]1[C@H]2c3cccc(CCCC(=O)O)c3O[C@H]2C[C@H]1O.O [Beraprost-314d Monohydrate, Beraprost-314d monohydrate]	99.89%	0.17%	99.77%	–	–	more stable than the anhydrous Beraprost-314d	0.25%	no apparent decrease	0.33%	99.69%	0.33%	–	–	–
CC#CC[C@H](C)[C@H](O)/C=C/[C@@H]1[C@H]2c3cccc(CCCC(=O)O)c3O[C@H]2C[C@H]1O.O [Beraprost-314d monohydrate]	–	–	–	–	–	–	–	–	–	–	–	remain Form A without any Form B feature peaks	an intermediate state containing both Form A and Form B	about 30±5 °C
